This is an account of results in PubChem BioAssay AID2060500 (Molecular Pharmacology Branch, DTP, NCI, 2025).

For the assay, the system named is 596521-263-R-J1-PDC complex spheroids, viability % of control. The experiment in a line: Anticancer human tumor 596521-263-R-J1-PDC patient-derived soft tissue sarcoma cell line growth inhibition [GQUAD]. To be noted: for viability, T/C: stronger effect = lower value. An excerpt: DNA G-quadruplex Stabilizer Agents in Combinations in Complex Spheroids
A high-throughput screen of multi-cell type tumor spheroids was designed to identify active combinations of DNA G-quadruplex stabilizer agents and targeted small molecules. Complex spheroids include a stromal component modeled by human endothelial cells (HUVEC) and fibroblasts modeled by human mesenchymal stem cells (MSCs). The concentration ranges selected for each drug and investigational agent were based upon clinically achievable concentrations if the clinical Cmax of the agent was known.
Compounds. The drugs and investigational agents: pidnarulex (CX-5461; NSC782164), APTO-253 (NSC789042), BRACO-19 (NSC847499), peposertib (NSC802822), ceralasertib (NSC780249), elimusertib (NSC800525), camonsertib (NSC841442), AZD-1390 (NSC803789), olaparib (NSC753686), talazoparib (NSC767125), ART-558 (NSC835418), sotorasib (NSC818433), MRTX-1133 (NSC836407), SN-38 (NSC673596), topotecan (NSC609699), etoposide (NSC141540), doxorubicin (NSC123127), gemcitabine (NSC613327), 5-fluorouracil (NSC19893), paclitaxel (NSC125973), vemurafenib (NSC761431), panobinostat (NSC761190), R-306465 (JNJ-16241199; NSC773264), adavosertib (NSC754352), TP-3654 (NSC805149), carboplatin (NSC241240), KSQ-4279 (NSC840948), and staurosporine (NSC755774) were obtained from the National Cancer Institute (NCI) Developmental Therapeutics Program Chemical Repository (34). The FDA-approved anticancer drug set is available from the NCI Developmental Therapeutics Program. […] The stock solutions were prepared in dimethyl sulfoxide (DMSO, Sigma-Aldrich, St. Louis, MO, cat. D2650) at 800-fold the tested concentration and stored at -70 degrees C prior to their use. All drugs and investigational agents were tested over a range starting from a high concentration at or near the clinical Cmax and decreasing in half-log increments. If the clinical Cmax for an agent had not been determined, the highest concentration tested was 10 microM.
2.3 Cell Culture. All cells were maintained in an incubator at 37 degrees C and 5% CO2 with 95% humidity. The PDC lines were cultured according to standard operating procedures established by the NCI PDMR. All PDCs were thawed and cultured in Matrigel-coated flasks prepared with a working solution of 1X Ham's F-12 nutrient mix, without supplementation (Invitrogen, cat. 11765054), 100 U/mL penicillin-streptomycin (Invitrogen, cat. 15140122), and 2.5% Matrigel (Corning Inc., cat. 354248) for the first three passages. The 857933-349-R-J2-PDC line was cultured in 6C/Colon 1B media, which includes advanced DMEM/F-12 (Thermo Fisher Scientific, cat. 12634028), 10 mM HEPES (Thermo Fisher Scientific, cat. 15630080), 1X GlutaMAX supplement (Thermo Fisher Scientific, cat. 35050061), 0.1 mg/mL primocin (InvivoGen, cat. ant-pm-2), 10% defined fetal bovine serum, heat inactivated (HyClone Laboratories Inc., cat. SH30070.03HI), 50% L-WRN conditioned media (ATCC, cat. CRL-3276), 1.25 mM N-Acetyl-L-cysteine (Sigma-Aldrich, cat. A9165), 10 mM nicotinamide (Sigma-Aldrich, cat. N0636), 1X B-27 supplement (Thermo Fisher Scientific, cat. 17504044), 1X N-2 supplement (Thermo Fisher Scientific, cat. 17502048), 10 microM Y-27632 dihydrochloride (Tocris Bioscience, cat. 1254), and 50 ng/mL human EGF recombinant protein (Thermo Fisher Scientific, cat. PHG0311). The 485176-168-R4-J1-PDC line was cultured in Panc media, which includes all 6C/Colon 1B media components plus 100 ng/mL human FGF-10 (Thermo Fisher Scientific, cat. 100-26), 500 nM SB-431542 (Selleckchem, cat. S1067), and gastrin (Tocris, cat. 3006).
[…]

Several values for one entry are separate records, joined by “and”; a condition that tells them apart may be missing. Equal entries are not always repeated.
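Note: spheroids exposed to drugs for 7 days before viability reading.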

By viability, T/C is commonly meant the result in the treated group divided by that in the control group, in per cent. Broadly, the IC50 is the concentration at which inhibition is half-maximal. Take `COc1ccc([C@@H](O)c2cc(-c3ncnc4cc(N5CCOCC5)ccc34)c(F)cc2Cl)nn1`: the viability, T/C by setting is: (compound 0.0316 µM) 102% and 104% and 98.4%; (compound 0.1 µM) 96.8% and 88% and 99.3%; (compound 0.316 µM) 89.7% and 79.9% and 93.3%; (compound 1 µM) 77.9% and 79.6% and 88.5%; (compound 3.16 µM) 66.9% and 63.6% and 80%; (compound 10 µM) 51% and 47.4% and 51.9%. For the same compound, where the note is “curve of compound”, the IC50 is > 10000 nM and 9830 nM.

Take `COc1cccc2c1C(=O)c1c(O)c3c(c(O)c1C2=O)CC(O)(C(=O)CO)CC3OC1CC(N)C(O)C(C)O1` (centres undefined): the viability, T/C is 93% and 105% and 97.4% (compound 0.0316 µM); 74.8% and 74.5% and 88.6% (compound 0.1 µM); 63.1% and 58% and 65.8% (compound 0.316 µM); 58.1% and 54.2% and 56.5% (compound 1 µM); 29.4% and 28.7% and 29.6% (compound 3.16 µM); 4.46% and 3.41% and 4.53% (compound 10 µM). The IC50 (curve of compound) is 1060 nM and 723 nM and 1130 nM.

On to `Cc1[nH]c2ccc(F)cc2c1-c1nc2c3cccnc3c3ncccc3c2[nH]1`, for which the viability, T/C runs as follows: (compound 0.0316 µM) 102% [middle of 12 runs]; (compound 0.1 µM) 102% [middle of 12 runs]; (compound 0.316 µM) 101% [middle of 12 runs]; (compound 1 µM) 101% [middle of 12 runs]; (compound 3.16 µM) 93.6% [middle of 12 runs]; (compound 10 µM) 85.7% [middle of 12 runs]. Further, the half-maximal inhibitory concentration (IC50) is greater than 10000 nM (compound alone, run of 04/16/2024) and greater than 10000 nM (compound alone, run of 04/22/2024).

As to `Cc1[nH]c2ccccc2c1CCNCc1ccc(/C=C/C(=O)NO)cc1`, the viability, T/C runs as follows: (compound 0.000999 µM) 101% and 103% and 95.3%; (compound 0.00316 µM) 90.3% and 84.7% and 95.6%; (compound 0.00999 µM) 96.9% and 70% and 80.2%; (compound 0.0316 µM) 96.4% and 54% and 57.8%; (compound 0.0999 µM) 101% and 27.6% and 35.7%. Further, under “curve of compound”, the IC50 is > 316 nM and 33.7 nM and 49.9 nM.

Regarding `Cc1cccc(N(C)C(=O)C2C(O)CCN2c2nc(C)cc(C(F)(F)F)c2C#N)c1` (centres undefined), the viability, T/C (compound 0.0316 µM) is 113% and 94.7% and 106%; the viability, T/C (compound 0.1 µM) is 103% and 98.2% and 94.6%; the viability, T/C (compound 0.316 µM) is 95.1% and 106% and 98.1%; the viability, T/C (compound 1 µM) was 101% and 98.4% and 112%; the viability, T/C (compound 3.16 µM) was 89.7% and 108% and 114%; the viability, T/C (compound 10 µM) is 91.4% and 96.3% and 101%. Further, the concentration for half-maximal inhibition (IC50) (curve of compound) was greater than 10000 nM.

Consider `Cc1cnc(CNC(=O)c2c(=O)c3ccc(N4CCCN(C)CC4)nc3n3c2sc2ccccc23)cn1`, for which the viability, T/C (compound 0.0316 µM) was 99% [middle of 12 runs]; the viability, T/C (compound 0.1 µM) was 93.1% [middle of 12 runs]; the viability, T/C (compound 0.316 µM) is 80.5% [middle of 12 runs]; the viability, T/C (compound 1 µM) was 68% [middle of 12 runs]; the viability, T/C (compound 3.16 µM) was 56.4% [middle of 12 runs]; the viability, T/C (compound 10 µM) was 47.9% [middle of 12 runs].

Consider `Cn1ncnc1[C@H]1c2n[nH]c(=O)c3cc(F)cc(c23)N[C@@H]1c1ccc(F)cc1`, for which the viability, T/C by setting is: (compound 0.000999 µM) 92.8% and 91% and 93.5%; (compound 0.00316 µM) 93.2% and 98.2% and 100%; (compound 0.00999 µM) 93.6% and 94% and 101%; (compound 0.0316 µM) 94.5% and 86.7% and 93.1%; (compound 0.0999 µM) 89.3% and 80.8% and 106%; (compound 0.316 µM) 92.8% and 88% and 76.6%. Moreover, the IC50 (curve of compound) is greater than 316 nM.

In the case of `Nc1ccn(C2OC(CO)C(O)C2(F)F)c(=O)n1` (centres undefined), the viability, T/C by setting is: (compound 0.0316 µM) 53.5% and 48% and 59.9%; (compound 0.1 µM) 35.8% and 49.4% and 43.2%; (compound 0.316 µM) 45% and 45.2% and 42.6%; (compound 1 µM) 42.5% and 40.8% and 52%; (compound 3.16 µM) 42.5% and 38.6% and 49.9%; (compound 10 µM) 33.4% and 33.3% and 40.1%. Besides, for the setting “curve of compound”, the IC50 was < 31.6 nM and 35.4 nM and 168 nM.

Regarding `O=C(c1cc(Cc2n[nH]c(=O)c3ccccc23)ccc1F)N1CCN(C(=O)C2CC2)CC1`, the viability, T/C by setting is: (compound 0.0316 µM) 102% and 96.8% and 103%; (compound 0.1 µM) 95.1% and 97.1% and 87.4%; (compound 0.316 µM) 87.9% and 88.9% and 100%; (compound 1 µM) 89.7% and 89.3% and 95.3%; (compound 3.16 µM) 92.5% and 79.6% and 86.6%; (compound 10 µM) 68.4% and 67.2% and 66.9%. Under “curve of compound”, the half-maximal inhibitory concentration (IC50) is greater than 10000 nM.

On to `O=c1[nH]cc(F)c(=O)[nH]1`, for which the viability, T/C runs as follows: (compound 0.0316 µM) 95.6% and 102% and 106%; (compound 0.1 µM) 105% and 100% and 94.9%; (compound 0.316 µM) 105% (2×) and 107%; (compound 1 µM) 98.4% and 114% and 99.3%; (compound 3.16 µM) 94.5% and 97.5% and 97.7%; (compound 10 µM) 97.2% and 97.8% and 93.8%. In addition, the IC50 (curve of compound) was greater than 10000 nM.
